Assay results as given in ChEMBL document CHEMBL6177961, “Structure-Based Analysis of Semisynthetic Anti-TB Rufomycin Analogues” (J Nat Prod, 2025).
≈ marks a conversion by molar mass, not a printed value.

Legend:
[1] = tested on: Mycobacterium tuberculosis; test: Antimycobacterial activity against Mycobacterium tuberculosis H37Rv ATCC 27294 assessed as reduction in bacterial growth by microplate alamar blue assay; type: functional
[2] = tested on: Mycobacterium avium; test: Antimycobacterial activity against Mycobacterium avium assessed as reduction in bacterial growth; type: functional
[3] = tested on: Mycobacteroides abscessus; test: Antimycobacterial activity against Mycobacterium abscessus ATCC 19977 assessed as reduction in bacterial growth by microplate Alamar blue assay; type: functional
[4] = Binding affinity to N-terminal Mycobacterium tuberculosis ClpC1 assessed as dissociation constant by SPR analysis
[5] = Binding affinity to full length Mycobacterium tuberculosis ClpC1 assessed as dissociation constant by SPR analysis
[6] = Cytotoxicity against African green monkey Vero cells; type: toxicity, cell-based; conditions: African green monkey (Chlorocebus sabaeus)
[7] = Selectivity index, ratio of IC50 for cytotoxicity against African green monkey Vero cells to MIC for antimycobacterial activity against Mycobacterium tuberculosis H37Rv ATCC 27294; type: toxicity, cell-based; conditions: read-out: Selectivity Index

| Structure (SMILES) | MIC [1] | MIC [2] | MIC [3] | Kd [4] | Kd [5] | IC50 [6] | selectivity ratio [7] |
| --- | --- | --- | --- | --- | --- | --- | --- |
| C/C=C/C[C@@H]1NC(=O)[C@H](CC(C)C)N2C(=O)[C@H](CC(C)[C@H]2OC)N(C)C(=O)[C@H](C)NC(=O)[C@H](Cc2ccc(OC(C)=O)c([N+](=O)[O-])c2)NC(=O)[C@H](CC(C)C)N(C)C(=O)[C@H](Cc2cn(C(C)(C)[C@H]3CO3)c3ccccc23)NC1=O (stereo partly specified) | 0.001 µM (≈ 0.0011 µg/mL) | 0.14 µM (≈ 0.154 µg/mL) | 0.13 µM (≈ 0.143 µg/mL) | 40 nM | 44 nM | > 100000 nM | > 71000 |
| C/C=C/C[C@@H]1NC(=O)[C@H](CC(C)C)N2C=C(C)C[C@@H](C2=O)N(C)C(=O)[C@H](C)NC(=O)[C@H](Cc2ccc3ocnc3c2)NC(=O)[C@H](CC(C)C)N(C)C(=O)[C@H](Cc2cn(C(C)(C)[C@H](O)CCl)c3ccccc23)NC1=O | 0.12 µM (≈ 0.125 µg/mL) | > 10 µM | 2.4 µM (≈ 2.5 µg/mL) | 300 nM | 430 nM | > 100000 nM | > 830 |
| C/C=C/C[C@@H]1NC(=O)[C@H](CC(C)C)N2C=C(C)C[C@@H](C2=O)N(C)C(=O)[C@H](C)NC(=O)[C@H](Cc2ccc3oc(=O)[nH]c3c2)NC(=O)[C@H](CC(C)C)N(C)C(=O)[C@H](Cc2cn(C(C)(C)[C@H](O)CCl)c3ccccc23)NC1=O | 0.12 µM (≈ 0.127 µg/mL) | > 10 µM | 2.3 µM (≈ 2.43 µg/mL) | 430 nM | 510 nM | > 100000 nM | > 830 |
| C/C=C/C[C@@H]1NC(=O)[C@H](CC(C)C)N2C=C(C)C[C@@H](C2=O)N(C)C(=O)[C@H](C)NC(=O)[C@H](Cc2ccc(OC(=O)c3ccccc3)c([N+](=O)[O-])c2)NC(=O)[C@H](CC(C)C)N(C)C(=O)[C@H](Cc2cn(C(C)(C)[C@@H](CCl)OC(=O)c3ccccc3)c3ccccc23)NC1=O | 0.45 µM (≈ 0.571 µg/mL) | > 10 µM | > 10 µM | 1400 nM | 1100 nM | > 100000 nM | > 220 |
| C/C=C/C[C@@H]1NC(=O)[C@H](CC(C)C)N2C(=O)[C@H](CC(C)[C@H]2O)N(C)C(=O)[C@H](C)NC(=O)[C@H](Cc2ccc(OC)c([N+](=O)[O-])c2)NC(=O)[C@H](CC(C)C)N(C)C(=O)[C@H](Cc2cn(C(C)(C)[C@H]3CO3)c3ccccc23)N(C)C1=O (stereo partly specified) | 0.054 µM (≈ 0.0578 µg/mL) | 9 µM (≈ 9.63 µg/mL) | 0.58 µM (≈ 0.621 µg/mL) | 120 nM | 130 nM | > 100000 nM | > 1900 |
| C/C=C/C[C@@H]1NC(=O)[C@H](CC(C)C)N2C(=O)[C@H](CC(C)[C@H]2OC)N(C)C(=O)[C@H](C)NC(=O)[C@H](Cc2ccc(OC)c([N+](=O)[O-])c2)NC(=O)[C@H](CC(C)C)N(C)C(=O)[C@H](Cc2cn(C(C)(C)[C@H](O)COC)c3ccccc23)NC1=O (stereo partly specified) | 0.023 µM (≈ 0.0254 µg/mL) | 4.5 µM (≈ 4.96 µg/mL) | 0.52 µM (≈ 0.573 µg/mL) | 37 nM | 40 nM | 83000 nM | 3600 |
| C/C=C/C[C@@H]1NC(=O)[C@H](CC(C)C)N2C(=O)[C@H](CC(C)[C@H]2OC)N(C)C(=O)[C@H](C)NC(=O)[C@H](Cc2ccc(OC(C)=O)c([N+](=O)[O-])c2)NC(=O)[C@H](CC(C)C)N(C)C(=O)[C@H](Cc2cn(C(C)(C)[C@H](O)CCl)c3ccccc23)NC1=O (stereo partly specified) | 0.005 µM (≈ 0.00567 µg/mL) | 0.21 µM (≈ 0.238 µg/mL) | 0.21 µM (≈ 0.238 µg/mL) | 38 nM | 42 nM | > 100000 nM | > 20000 |
| C/C=C/C[C@@H]1NC(=O)[C@H](CC(C)C)N2C=C(C)C[C@@H](C2=O)N(C)C(=O)[C@H](C)NC(=O)[C@H](Cc2ccc(O)c(NC(=O)CCl)c2)NC(=O)[C@H](CC(C)C)N(C)C(=O)[C@H](Cc2cn(C(C)(C)[C@H](O)CCl)c3ccccc23)NC1=O | 0.098 µM (≈ 0.109 µg/mL) | > 10 µM | 2.2 µM (≈ 2.44 µg/mL) | 220 nM | 310 nM | > 100000 nM | > 1000 |
